Data as given in patent US6638935B2, “Heteroary1 derivatives and their use as medicaments” (Zentaris AG, priority 2000, dated 2003).

- melting point: 94 to 96 °C
Compound: COc1cc(OC)cc(N2CCN(C(=O)c3ccncc3)CC2)c1 [Example 13, 1-(3,5-Dimethoxyphenyl)-4-(4-pyridyl-carbonyl)piperazine]
